Experimental data from ChEMBL document CHEMBL4706479, “Novel Aryloxyethyl Derivatives of 1-(1-Benzoylpiperidin-4-yl)methanamine as the Extracellular Regulated Kinases 1/2 (ERK1/2) Phosphorylation-Preferring Serotonin 5-HT Receptor-Biased Agonists with Robust Antidepressant-like Activity” (J Med Chem, 2019).

Assays:
[1] = target: D(2) dopamine receptor (Homo sapiens, UniProt P14416); assay: Displacement of [3H]-methylspiperone from recombinant human D2 receptor stably expressed in CHO-K1 cell membranes measured after 60 mins by microbeta2 scintillation counting method; set-up: species or system Cell membrane
Chain of D(2) dopamine receptor (P14416 whole entry): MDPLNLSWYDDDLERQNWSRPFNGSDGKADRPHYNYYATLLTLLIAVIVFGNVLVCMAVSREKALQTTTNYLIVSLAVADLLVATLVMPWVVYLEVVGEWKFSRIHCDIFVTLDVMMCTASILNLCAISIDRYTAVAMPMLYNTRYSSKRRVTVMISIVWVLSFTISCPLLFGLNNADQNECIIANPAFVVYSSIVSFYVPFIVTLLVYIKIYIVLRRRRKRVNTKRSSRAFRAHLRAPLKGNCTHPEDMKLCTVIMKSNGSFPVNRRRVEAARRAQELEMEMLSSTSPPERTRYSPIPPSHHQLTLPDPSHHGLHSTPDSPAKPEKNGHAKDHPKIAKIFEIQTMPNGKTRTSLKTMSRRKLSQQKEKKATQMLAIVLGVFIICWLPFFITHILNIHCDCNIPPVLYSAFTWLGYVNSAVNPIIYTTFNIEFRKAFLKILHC

[2] = target: T1, 5-hydroxytryptamine receptor 1A (Homo sapiens, UniProt P08908); assay: Displacement of [3H]8-OH-DPAT from recombinant human 5HT1A receptor stably expressed in CHO-K1 cell membranes measured after 60 mins by microbeta2 scintillation counting method; set-up: species or system Cell membrane
T1 sequence (P08908 whole entry): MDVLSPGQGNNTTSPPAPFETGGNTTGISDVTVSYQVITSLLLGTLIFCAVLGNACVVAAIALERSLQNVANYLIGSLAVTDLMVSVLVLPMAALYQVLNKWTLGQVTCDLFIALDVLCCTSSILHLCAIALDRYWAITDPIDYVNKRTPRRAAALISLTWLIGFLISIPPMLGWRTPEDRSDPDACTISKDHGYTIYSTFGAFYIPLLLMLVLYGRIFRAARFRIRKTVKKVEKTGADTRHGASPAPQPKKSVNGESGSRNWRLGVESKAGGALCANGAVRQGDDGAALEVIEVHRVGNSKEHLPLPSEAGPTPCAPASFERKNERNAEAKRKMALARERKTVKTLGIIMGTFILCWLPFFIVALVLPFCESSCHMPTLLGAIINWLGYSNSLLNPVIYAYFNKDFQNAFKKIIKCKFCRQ

[3] = target: T2, Adrenergic receptor alpha-1 (Rattus norvegicus, UniProt P15823+P23944+P43140); assay: Displacement of [3H]-prazosin from alpha1 adrenergic receptor in rat cortex measured after 30 mins by microbeta2 scintillation counting method; format: tissue-based
T2 sequence (P15823 whole entry): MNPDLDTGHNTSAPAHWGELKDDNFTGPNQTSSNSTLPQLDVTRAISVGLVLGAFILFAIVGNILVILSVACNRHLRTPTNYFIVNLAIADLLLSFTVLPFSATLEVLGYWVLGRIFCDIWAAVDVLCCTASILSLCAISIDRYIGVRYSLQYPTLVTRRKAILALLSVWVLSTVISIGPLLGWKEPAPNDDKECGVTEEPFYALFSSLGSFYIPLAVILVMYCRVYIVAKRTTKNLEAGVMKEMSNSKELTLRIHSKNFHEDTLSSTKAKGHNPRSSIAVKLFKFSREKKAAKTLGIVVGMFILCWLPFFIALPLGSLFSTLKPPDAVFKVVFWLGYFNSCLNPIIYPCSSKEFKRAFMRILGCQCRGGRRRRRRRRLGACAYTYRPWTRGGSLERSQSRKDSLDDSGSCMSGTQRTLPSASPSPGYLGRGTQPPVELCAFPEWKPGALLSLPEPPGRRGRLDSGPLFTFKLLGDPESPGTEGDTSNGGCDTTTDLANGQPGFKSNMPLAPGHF
T2 sequence (P23944 whole entry): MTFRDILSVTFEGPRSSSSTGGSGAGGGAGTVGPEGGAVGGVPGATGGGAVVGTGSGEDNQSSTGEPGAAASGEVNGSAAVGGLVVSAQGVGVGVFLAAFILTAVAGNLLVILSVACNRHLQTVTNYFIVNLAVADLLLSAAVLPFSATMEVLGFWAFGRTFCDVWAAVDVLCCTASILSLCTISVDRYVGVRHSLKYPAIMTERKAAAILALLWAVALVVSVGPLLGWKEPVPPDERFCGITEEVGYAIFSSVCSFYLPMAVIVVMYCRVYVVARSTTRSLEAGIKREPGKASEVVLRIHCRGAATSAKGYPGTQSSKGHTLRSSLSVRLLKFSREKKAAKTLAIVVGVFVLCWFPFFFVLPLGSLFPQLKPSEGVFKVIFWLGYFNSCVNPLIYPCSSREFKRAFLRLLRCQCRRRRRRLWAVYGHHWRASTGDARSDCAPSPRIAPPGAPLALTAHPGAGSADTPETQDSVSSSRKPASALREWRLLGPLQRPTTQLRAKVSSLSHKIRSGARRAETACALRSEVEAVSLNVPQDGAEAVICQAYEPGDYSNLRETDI
T2 sequence (P43140 whole entry): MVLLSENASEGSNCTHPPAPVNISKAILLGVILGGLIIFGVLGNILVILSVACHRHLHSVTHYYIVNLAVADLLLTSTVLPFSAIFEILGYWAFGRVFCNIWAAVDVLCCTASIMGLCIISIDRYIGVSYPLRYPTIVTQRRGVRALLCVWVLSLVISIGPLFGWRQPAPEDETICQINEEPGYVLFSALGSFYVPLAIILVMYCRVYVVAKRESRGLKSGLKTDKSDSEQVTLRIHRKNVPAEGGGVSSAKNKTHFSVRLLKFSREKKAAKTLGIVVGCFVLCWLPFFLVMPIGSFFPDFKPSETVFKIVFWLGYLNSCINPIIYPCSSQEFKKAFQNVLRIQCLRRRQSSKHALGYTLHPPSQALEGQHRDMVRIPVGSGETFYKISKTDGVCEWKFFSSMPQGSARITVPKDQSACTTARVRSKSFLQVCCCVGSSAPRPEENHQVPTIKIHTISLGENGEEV

[4] = target: T3, 5-hydroxytryptamine receptor 1A (Homo sapiens) (UniProt P08908); assay: Biased agonist activity at human recombinant 5-HT1A receptor stably expressed in CHO-K1 cells assessed as increase in ERK1/2 phosphorylation levels incubated for 15 mins by Alphalisa assay relative to serotonin; format: cell-based; details: filed as agonist
T3 sequence (whole entry): T1 sequence (P08908 whole entry)

[5] = target: T3, 5-hydroxytryptamine receptor 1A (Homo sapiens); assay: Biased agonist activity at human recombinant 5-HT1A receptor stably expressed in CHO-K1 cells assessed as inhibition of forskolin-induced cAMP accumulation after 40 mins by LANCE Ultra cAMP kit-based TR-FRET assay relative to serotonin; format: functional, cell-based
[6] = target: T3, 5-hydroxytryptamine receptor 1A (Homo sapiens); assay: Biased agonist activity at Gal4-VP16 transcription factor linked human 5-HT1A receptor expressed in human U2OS cells assessed as stimulation of beta-arrestin recruitment measured after 5 hrs by Tango assay relative to serotonin; format: cell-based; details: filed as agonist
[7] = target: T3, 5-hydroxytryptamine receptor 1A (Homo sapiens); assay: Biased agonist activity at human recombinant 5-HT1A receptor stably expressed in CHO-K1 cells assessed as increase in calcium mobilization measured at 2 sec intervals for 180 secs by Fluo-4AM dye based fluorescence assay relative to serotonin; format: functional, cell-based; details: time 180.0 sec
[8] = Permeability of compound across basolateral to apical side in human Caco-2 cells at pH 7.4; format: ADME, cell-based; details: Caco-2, pH 7.4, read-out: permeability
[9] = in vitro; details: human, liver microsomes
[10] = target: T1, 5-hydroxytryptamine receptor 1A; assay: Biased agonist activity at human recombinant 5-HT1A receptor stably expressed in CHO-K1 cells assessed as increase in ERK1/2 phosphorylation levels incubated for 15 mins by Alphalisa assay; format: cell-based
[11] = target: T1, 5-hydroxytryptamine receptor 1A; assay: Biased agonist activity at human recombinant 5-HT1A receptor stably expressed in CHO-K1 cells assessed as inhibition of forskolin-induced cAMP accumulation after 40 mins by LANCE Ultra cAMP kit-based TR-FRET assay; format: functional, cell-based
[12] = target: T1, 5-hydroxytryptamine receptor 1A; assay: Biased agonist activity at human recombinant 5-HT1A receptor stably expressed in CHO-K1 cells assessed as increase in calcium mobilization measured at 2 sec intervals for 180 secs by Fluo-4AM dye based fluorescence assay; format: functional, cell-based
[13] = test system: Rattus norvegicus; assay: Antidepressant-like activity in Wistar rat assessed as minimum effective dose causing reduction in immobility time after oral administration with compound 60 mins prior to testing and measured for 5 mins test period by Porsolt-forced swim test; format: functional; details: 1.083 h, time 65 min, read-out: MED
[14] = test system: Rattus norvegicus; assay: Antidepressant-like activity in Wistar rat assessed as maximum effective dose causing reduction in immobility time after oral administration with compound 60 mins prior to testing and measured for 5 mins test period by Porsolt-forced swim test; format: functional; details: time 65 min; 1.083 h

Row | Ki [1] [nM] | Ki [2] [nM] | pKi [3] | Emax [4] [%] | Emax ([5]; filed as agonist) [%] | Emax [6] [%] | Emax ([7]; filed as partial agonist) [%] | Structure (SMILES) | also measured
1 |  |  | < 6 | 99 | 100 | 101 |  | O=C(c1ccc(F)c(Cl)c1)N1CCC(F)(CNCCOc2cccnc2)CC1 | Emax ([7]; filed as agonist): 98%
2 |  |  |  | 85 | 71 | 99 | 58 | O=C(c1ccc(Cl)c(Cl)c1)N1CCC(F)(CNCCOc2ccccn2)CC1 | 
3 | > 1000 | 2.19 |  |  |  |  |  | Cc1cnc(CNCC2(F)CCN(C(=O)c3ccc(F)c(Cl)c3)CC2)nc1 | EC50 [10]: 4.68 nM; EC50 [11]: 60.3 nM; EC50 [12]: 245 nM; minimal effective dose [13]: 0.63 mg/kg; ED [14]: 5 mg/kg

The next lines start with the compound.

Row | Structure (SMILES) | Ki [1] [nM] | Ki [2] [nM] | pKi [3] | Emax [4] [%] | Emax ([5]; filed as agonist) [%] | Emax [6] [%] | Emax ([7]; filed as partial agonist) [%] | also measured
4 | O=C(c1ccc(F)c(Cl)c1)N1CCC(F)(CNCCOc2cncnc2)CC1 | > 1000 | 209 | < 6 |  |  |  |  | 
5 | O=C(c1ccc(F)c(Cl)c1)N1CCC(F)(CNCCCc2ccccc2)CC1 |  |  | < 6 | 77 | 91 | 99 | 74 | 
6 | O=C(c1ccc(F)c(Cl)c1)N1CCC(F)(CNCCSc2ccccn2)CC1 |  |  |  | 84 | 76 | 102 | 73 | 
7 | O=C(c1ccc(F)c(Cl)c1)N1CCC(F)(CNCCOc2ncccn2)CC1 |  |  | < 6 |  |  |  |  | 
8 | O=C(c1ccc(F)c(Cl)c1)N1CCC(F)(CNCCCc2ccccn2)CC1 |  |  |  |  |  | 101 |  | Emax ([5]; filed as partial agonist): 74%; Emax ([7]; filed as agonist): 87%
9 | O=C(c1ccc(F)c(Cl)c1)N1CCC(F)(CNCCOc2ccnnc2)CC1 | > 1000 | 200 | < 6 |  |  |  |  | 
10 | CC(C)NCC(O)COc1cccc2ccccc12 (configuration not stated) [PROPRANOLOL] |  |  |  |  |  |  |  | Papp B→A [8]: 27.4 ×10⁻⁶ cm/s; half-life at 0.1 µM [9]: > 1 h
